{
  "source": "patent US10251865B2",
  "about": "“Method of activating regulatory T cells with alpha-2B adrenergic receptor agonists” (Allergan, Inc., priority 2010, dated 2019)",
  "key": {"[1]": {"system": "goblet cells and T cells in the conjunctiva", "assay": "Dry eye desiccating stress in mice, therapeutic mode, conjunctiva histology", "type": "in vivo", "conditions": "3 mg/kg/day via osmotic minipump, mice previously exposed to blower, comparable to Cyclosporine A, FIG. 12", "text": "C57BL/6 (C57BL/6NTac) and B6.Cg/NTac-Foxn1nuNE9 were purchased from Taconic, Inc. (Germantown, N.Y.). Mice were used at 6-10 weeks of age. Animal studies approval was obtained from the Allergan Animal Care and Use Committee. All studies adhered to the Association for Research in Vision and Ophthalmology statement for the Use of Animals in Ophthalmic and Vision Research. As described in the literature dry eye was induced by treating mice with subcutaneous injections of scopolamine hydrobromide (0.5 mg/0.2 ml; Sigma-Aldrich, St. Louis, Mo.) three times a day alternating between the left and right flanks (Neiderkorn et al, 2006). Mice were placed in a cage containing perforated plastic screens on each side of the cage to permit airflow from fans (one fan on each side of the cage) for 16 hr/day in a hood (AirClean Systems, Raleigh, N.C.). Room humidity was kept below 40%. Desiccating stress (DS) was induced for 10 consecutive days. Spleens and cervical lymph nodes (CLN) were collected from mice subjected to DS and NS, and one donor-equivalent of either spleen or CLN CD4+ cells was transferred i.p. to syngeneic nude mice. One splenic equivalent of T cells was equal to 5×10^7 cells. Three days later samples were collected for analysis. For tear collection, 1.5 μL of PBS was placed on each eye, and then 1 μL of tear was collected from both eyes and placed in 8 μL of cytokine assay buffer (Beadlyte; Millipore, Billerica, Mass.). Buffer and tear fluid were collected by capillary action using a 1 μL volume glass capillary tube (Drummond Scientific, Broomhall, Pa.) that was placed in the tear meniscus of the lateral canthus. Samples were frozen at −80° C. until the time of assay. Histological analysis was done by staining […] samples with antibody to CD4 and H&E staining to quantify goblet cells and T cells in the conjunctiva. To test the compounds in a therapeutic mode, the animals were exposed to the desiccating stress for two weeks and then allowed to rest for 7 days in regular housing cages. The animals were then re-exposed to desiccating stress for an additional 7 days to mimic relapsing form of chronic dry eye disease. Drug treatment with Compound B was started 2 days before re-exposure to desiccating stress. In both the studies Compound B was dosed at 3 mg/kg/day. Adoptive transfer, tear cytokine analysis and histological analysis were performed as described above."}, "EIU rats": {"system": "EIU rats", "assay": "Endotoxin-induced uveitis (EIU) in rats", "type": "in vivo, rat", "description": "Female Lewis rats (180-200 grams) were purchased from Charles River Laboratory. Rats were footpad-injected (hind left side) with either 100 μl of 1 mg/ml LPS (Sigma) solution (in sterile pyrogen-free saline) or 150 μl of sterile pyrogen-free saline. Animals were sacrificed at 24 hours following LPS injection. Aqueous humor was collected and analyzed to determine inflammatory cell counts, levels of cytokines and chemokine concentration as well as total protein concentrations. Blood leukocyte differentiation and histopathology were also determined if required."}, "[2]": {"system": "regulatory T cells and immune cells in the CNS", "assay": "Flow cytometry of immune cells and Treg cells in PLP-induced EAE mice", "type": "in vivo", "text": "The mouse model of experimental autoimmune encephalomyelitis (EAE) has been used extensively to understand the mechanisms underlying the immunopathogenesis of MS. […] Components of the immune system including T cells, macrophage, and antibodies are important contributors to myelin destruction in EAE mice. Further, inflammation also gives rise to multifocal regions demyelination culminating in clinical signs of neurologic dysfunction that include loss of tail tone, abnormal gait and partial-to-complete hind-limb paralysis. PLP-induced EAE model offers the ability to simultaneously investigate the pathogenic mechanisms of CNS inflammation and demyelination and MS-associated pain, a multi-targeted concept that we have optimized here at Allergan. Using sterile technique proteolipid protein myelin peptide (PLP) (139-159: […]) is mixed 1:1 with incomplete Freund's adjuvant (IFA) (Final concentration of 2 mg/ml PLP). 8-10 week old Female SJL mice (Taconic) are injected subcutaneously with 100 μl PLP/IFA (200 μg PLP/injection) on both the right and left hind-flank (day 0) using a 26G needle. […]\nMice were routinely visually scored for behavioral abnormalities on a scale from 0-5; 0-no abnormality, 1-partial loss of tail tonicity (partial limp tail), 2-loss of tail tonicity and hind-limb weakness 3-unsteady gait and partial hind-limb paralysis, 4-complete hind-limb paralysis and 5-moribund or dead. […] Allodynia was measured by the Von Frey hairs method as described earlier. […]\nTo determine surface expression of CD4 (Helper T cells), CD8 (killer T cells), CD25 (activated helper T cells and regulatory T cells), CD45 (macrophage and microglial cells) and F4/80 (macrophage and microglial cells) 5×10^5 cells/100 μL FACS buffer (PBS, 0.02% sodium azide [Sigma-Aldrich] and 2% bovine serum albumin) were incubated with appropriate antibodies from BD biosciences, Mountain View, Calif. […] Expression was analyzed (FACSCalibur with CellQuest software; BD Biosciences, Mountain View, Calif.)."}},
  "data": [
    {"smiles": "CCC1=CC(Cc2c[nH]cn2)CCC1", "note": "(stereo not shown) [Compound B]", "values": [
      {"measurement": "T cell infiltration into the conjunctiva", "setting": "[1]", "result": "significantly prevented"},
      {"measurement": "goblet cell loss", "setting": "[1]", "result": "significantly prevented"},
      {"measurement": "protein exudation in the aqueous humor", "setting": "EIU rats; 1 mg/kg/day by osmotic minipump, vs untreated or vehicle-treated (saline) controls, FIG. 9", "result": "significantly inhibited"},
      {"measurement": "decrease on blood lymphocyte populations as a result of LPS stimulation", "setting": "EIU rats; FIG. 10", "result": "significantly normalized"},
      {"measurement": "increase in blood neutrophils as a result of LPS stimulation", "setting": "EIU rats; FIG. 10", "result": "significantly normalized"},
      {"measurement": "presence of immune cells in the CNS", "setting": "[2]; flow cytometry at the end of the study, FIG. 5", "result": "significantly reduced"},
      {"measurement": "Treg number", "setting": "[2]; mice immunized with proteolipid protein, 3 mg/kg/day by osmotic minipump, FIG. 3", "result": "selectively boosted"}
    ]},
    {"smiles": "Clc1cccc(CNC2=NCCN2)c1Cl", "note": "[Compound C]", "values": [
      {"measurement": "T cell infiltration into the conjunctiva", "setting": "[1]", "result": "significantly reduced"},
      {"measurement": "goblet cell loss", "setting": "[1]", "result": "significantly reduced"},
      {"measurement": "frequency of regulatory T cells (CD4+CD25hiFoxP3+) in the spinal cord", "setting": "[2]; flow cytometry on day 37, FIG. 7", "result": "increased"}
    ]}
  ]
}
